How the values were obtained:
Assay in all cases: relative viability (nuclei count vs DMSO), 5 days (fraction); higher = more cells survive
NCI-H1793 = test system: NCI-H1793
Method in brief: (§1)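 A single step with final 0.05% Triton X-100, 1% formaldehyde and 1 ug/ml Hoechst fixed the cells and stained nuclei 5 days after treatment. Lung cancer cell lines in 1536-well plates had been treated by pin tool the day after seeding with one drug alone or a fixed anchor-drug dose plus five library-drug doses (not always all listed) in √10 steps, and nuclei were counted on 4× images. Relative viability is the ratio of nuclei in treated wells to nuclei in vehicle wells, taken as the median of duplicate plates.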

SW 1573 = test system: SW 1573
Method in brief: as §1

NCI-H441 = test system: NCI-H441
Method in brief: as §1

NCI-H2347 = test system: NCI-H2347
Method in brief: as §1

NCI-H2342 = test system: NCI-H2342
Method in brief: as §1

NCI-H2009 = test system: NCI-H2009
Method in brief: as §1

HCC-15 = test system: HCC-15
Method in brief: as §1

EPLC-272H = test system: EPLC-272H
Method in brief: as §1

NCI-H358 = test system: NCI-H358
Method in brief: as §1

UMC-11 = test system: UMC-11
Method in brief: as §1

NCI-H322M = test system: NCI-H322M
Method in brief: as §1

NCI-H647 = test system: NCI-H647
Method in brief: as §1

A-427 = test system: A-427
Method in brief: as §1

NCI-H1915 = test system: NCI-H1915
Method in brief: as §1

LK-2 = test system: LK-2
Method in brief: as §1

NCI-H1944 = test system: NCI-H1944
Method in brief: as §1

ABC-1 = test system: ABC-1
Method in brief: as §1

NCI-H838 = test system: NCI-H838
Method in brief: as §1

NCI-H2023 = test system: NCI-H2023
Method in brief: as §1

RERF-LC-KJ = test system: RERF-LC-KJ
Method in brief: as §1

NCI-H1734 = test system: NCI-H1734
Method in brief: as §1

LC-2-ad = test system: LC-2-ad
Method in brief: as §1

## Cc1csc(=NC2CCCCC2)n1/N=C/c1ccc(O)c(O)c1O [MIM1] + COc1cc2c(Oc3ccc(NC(=O)C4(C(=O)Nc5ccc(F)cc5)CC4)cc3F)ccnc2cc1OCCCN1CCOCC1 [Foretinib] (partner 0.25 µM)
NCI-H1793; first compound 0.2 µM
  relative viability: 0.793
NCI-H1793; first compound 2 µM
  relative viability: 0.735
NCI-H1793; first compound 6.325 µM
  relative viability: 0.686
NCI-H1793; first compound 20 µM
  relative viability: 1.01
SW 1573; first compound 0.2 µM
  relative viability: 1.04
SW 1573; first compound 0.6325 µM
  relative viability: 0.963
SW 1573; first compound 2 µM
  relative viability: 0.809
SW 1573; first compound 6.325 µM
  relative viability: 0.871
SW 1573; first compound 20 µM
  relative viability: 0.539
NCI-H441; first compound 0.2 µM
  relative viability: 1.17
NCI-H441; first compound 2 µM
  relative viability: 1.01
NCI-H441; first compound 6.325 µM
  relative viability: 0.617
NCI-H441; first compound 20 µM
  relative viability: 0.256
NCI-H2347; first compound 0.2 µM
  relative viability: 0.953
NCI-H2347; first compound 0.6325 µM
  relative viability: 0.568
NCI-H2347; first compound 2 µM
  relative viability: 0.567
NCI-H2347; first compound 6.325 µM
  relative viability: 1.18
NCI-H2347; first compound 20 µM
  relative viability: 0.445
NCI-H2342; first compound 0.2 µM
  relative viability: 1.25
NCI-H2342; first compound 0.6325 µM
  relative viability: 0.952
NCI-H2342; first compound 2 µM
  relative viability: 1.07
NCI-H2342; first compound 6.325 µM
  relative viability: 0.952
NCI-H2342; first compound 20 µM
  relative viability: 1.11
NCI-H2009; first compound 0.2 µM
  relative viability: 1.19
NCI-H2009; first compound 0.6325 µM
  relative viability: 1.25
NCI-H2009; first compound 2 µM
  relative viability: 1.27
NCI-H2009; first compound 6.325 µM
  relative viability: 1.09
NCI-H2009; first compound 20 µM
  relative viability: 0.566
HCC-15; first compound 0.2 µM
  relative viability: 1.09
HCC-15; first compound 2 µM
  relative viability: 1.06
HCC-15; first compound 6.325 µM
  relative viability: 0.764
HCC-15; first compound 20 µM
  relative viability: 0.157
EPLC-272H; first compound 0.2 µM
  relative viability: 0.779
EPLC-272H; first compound 0.6325 µM
  relative viability: 0.724
EPLC-272H; first compound 2 µM
  relative viability: 0.622
EPLC-272H; first compound 6.325 µM
  relative viability: 0.159
EPLC-272H; first compound 20 µM
  relative viability: 0.12
NCI-H358; first compound 0.2 µM
  relative viability: 0.646
NCI-H358; first compound 0.6325 µM
  relative viability: 0.758
NCI-H358; first compound 2 µM
  relative viability: 0.623
NCI-H358; first compound 6.325 µM
  relative viability: 0.348
NCI-H358; first compound 20 µM
  relative viability: 0.149
UMC-11; first compound 0.2 µM
  relative viability: 1.07
UMC-11; first compound 2 µM
  relative viability: 1.2
UMC-11; first compound 6.325 µM
  relative viability: 0.703
UMC-11; first compound 20 µM
  relative viability: 0.335
NCI-H322M; first compound 0.2 µM
  relative viability: 0.986
NCI-H322M; first compound 0.6325 µM
  relative viability: 0.895
NCI-H322M; first compound 2 µM
  relative viability: 0.867
NCI-H322M; first compound 6.325 µM
  relative viability: 0.85
NCI-H322M; first compound 20 µM
  relative viability: 0.548
NCI-H647; first compound 0.2 µM
  relative viability: 1.16
NCI-H647; first compound 0.6325 µM
  relative viability: 1.12
NCI-H647; first compound 6.325 µM
  relative viability: 1
NCI-H647; first compound 20 µM
  relative viability: 0.703
A-427; first compound 0.2 µM
  relative viability: 1.15
A-427; first compound 2 µM
  relative viability: 1.05
A-427; first compound 6.325 µM
  relative viability: 1.07
A-427; first compound 20 µM
  relative viability: 0.25
NCI-H1915; first compound 0.2 µM
  relative viability: 1.13
NCI-H1915; first compound 0.6325 µM
  relative viability: 1.07
NCI-H1915; first compound 2 µM
  relative viability: 1.07
NCI-H1915; first compound 6.325 µM
  relative viability: 0.83
NCI-H1915; first compound 20 µM
  relative viability: 0.251
LK-2; first compound 0.2 µM
  relative viability: 1.46
LK-2; first compound 2 µM
  relative viability: 1.33
LK-2; first compound 6.325 µM
  relative viability: 1.17
LK-2; first compound 20 µM
  relative viability: 0.218
NCI-H1944; first compound 0.2 µM
  relative viability: 0.908
NCI-H1944; first compound 0.6325 µM
  relative viability: 0.93
NCI-H1944; first compound 2 µM
  relative viability: 0.581
NCI-H1944; first compound 6.325 µM
  relative viability: 0.709
NCI-H1944; first compound 20 µM
  relative viability: 0.564
ABC-1; first compound 0.2 µM
  relative viability: 1.05
ABC-1; first compound 0.6325 µM
  relative viability: 1.12
ABC-1; first compound 2 µM
  relative viability: 0.981
ABC-1; first compound 6.325 µM
  relative viability: 0.324
ABC-1; first compound 20 µM
  relative viability: 0.328
NCI-H838; first compound 0.2 µM
  relative viability: 1.01
NCI-H838; first compound 0.6325 µM
  relative viability: 1.01
NCI-H838; first compound 2 µM
  relative viability: 0.761
NCI-H838; first compound 6.325 µM
  relative viability: 0.853
NCI-H838; first compound 20 µM
  relative viability: 0.657
NCI-H2023; first compound 0.2 µM
  relative viability: 0.691
NCI-H2023; first compound 0.6325 µM
  relative viability: 0.941
NCI-H2023; first compound 2 µM
  relative viability: 0.7
NCI-H2023; first compound 6.325 µM
  relative viability: 0.599
NCI-H2023; first compound 20 µM
  relative viability: 0.453
RERF-LC-KJ; first compound 0.2 µM
  relative viability: 0.887
RERF-LC-KJ; first compound 0.6325 µM
  relative viability: 0.808
RERF-LC-KJ; first compound 2 µM
  relative viability: 0.803
RERF-LC-KJ; first compound 6.325 µM
  relative viability: 0.637
RERF-LC-KJ; first compound 20 µM
  relative viability: 0.24
NCI-H1734; first compound 0.2 µM
  relative viability: 0.884
NCI-H1734; first compound 0.6325 µM
  relative viability: 0.886
NCI-H1734; first compound 2 µM
  relative viability: 0.772
NCI-H1734; first compound 6.325 µM
  relative viability: 0.478
NCI-H1734; first compound 20 µM
  relative viability: 0.255
LC-2-ad; first compound 0.2 µM
  relative viability: 0.896
LC-2-ad; first compound 0.6325 µM
  relative viability: 0.783
LC-2-ad; first compound 2 µM
  relative viability: 0.745
LC-2-ad; first compound 6.325 µM
  relative viability: 0.631
LC-2-ad; first compound 20 µM
  relative viability: 0.159
